Experimental data from ChEMBL document CHEMBL1201862, “PubChem BioAssay data set” (2004).
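Cells were grown in 96-well plates and exposed to each compound for 48 hours at five concentrations; endpoints were interpolated linearly between bracketing concentrations, or set to the highest concentration if not reached. GI50 is the concentration that inhibits growth by half.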 Active and inactive are the calls of the source. Rule as the data show it: active = GI50 up to about 1.1 µM and inactive = higher.

Assays:
Experiment in all cases: growth of human tumour cells (NCI), 48 h
HCT-15 = tested on: HCT-15
U-251 = tested on: U-251
K562 = tested on: K562
HL-60 = tested on: HL-60
HCC 2998 = tested on: HCC 2998
NCI-H226 = tested on: NCI-H226
MDA-MB-231 = tested on: MDA-MB-231
TK-10 = tested on: TK-10
A498 = tested on: A498
EKVX = tested on: EKVX
SF-539 = tested on: SF-539
COLO 205 = tested on: COLO 205
HCT-116 = tested on: HCT-116
OVCAR-3 = tested on: OVCAR-3
MDA-N = tested on: MDA-N
MDA-MB-435 = tested on: MDA-MB-435
KM12 = tested on: KM12
UO-31 = tested on: UO-31
NCI-H460 = tested on: NCI-H460
OVCAR-8 = tested on: OVCAR-8
SNB-75 = tested on: SNB-75
LOX IMVI = tested on: LOX IMVI
ACHN = tested on: ACHN
SK-MEL-28 = tested on: SK-MEL-28
NCI-H23 = tested on: NCI-H23
DU-145 = tested on: DU-145
PC-3 = tested on: PC-3
Hs-578T = tested on: Hs-578T
HOP-62 = tested on: HOP-62
SW-620 = tested on: SW-620
SN12C = tested on: SN12C
Malme-3M = tested on: Malme-3M
MOLT-4 = tested on: MOLT-4
RPMI-8226 = tested on: RPMI-8226
786-0 = tested on: 786-0
CCRF-CEM = tested on: CCRF-CEM
SNB-19 = tested on: SNB-19
HOP-92 = tested on: HOP-92
HT-29 = tested on: HT-29
MCF7 = tested on: MCF7
CAKI-1 = tested on: CAKI-1
OVCAR-5 = tested on: OVCAR-5
M14 = tested on: M14
SK-OV-3 = tested on: SK-OV-3
T47D = tested on: T47D
NCI-H522 = tested on: NCI-H522
UACC-62 = tested on: UACC-62
NCI/ADR-RES = tested on: NCI/ADR-RES
SK-MEL-5 = tested on: SK-MEL-5
SF-295 = tested on: SF-295
UACC-257 = tested on: UACC-257
SF-268 = tested on: SF-268
RXF 393 = tested on: RXF 393
A549 = tested on: A549
OVCAR-4 = tested on: OVCAR-4
SK-MEL-2 = tested on: SK-MEL-2
BT-549 = tested on: BT-549
IGROV-1 = tested on: IGROV-1

Cc1ccc2c(/C=C/c3ccc(N(C)C)cc3)ccnc2c1C was tested, and the GI50 (HCT-15) was 12.8 µM, the GI50 (U-251) was 38.7 µM (inactive) and the GI50 (K562) was 6.81 µM (inactive). The GI50 (HL-60) was 21.2 µM (inactive), the GI50 (HCC 2998) was 27.9 µM (inactive) and the GI50 (NCI-H226) was 30.5 µM (inactive). For the same compound, the GI50 (MDA-MB-231) was 16.6 µM (inactive), the GI50 (TK-10) was 16.2 µM (inactive) and the GI50 (A498) was > 100 µM (inactive). For the same compound, the GI50 (EKVX) was 40.4 µM (inactive), the GI50 (SF-539) was 32.2 µM (inactive) and the GI50 (COLO 205) was 18.4 µM (inactive). The GI50 (HCT-116) was 25.2 µM (inactive), the GI50 (OVCAR-3) was 32.4 µM (inactive) and the GI50 (MDA-N) was 3.99 µM (inactive). For the same compound, the GI50 (MDA-MB-435) was 4.57 µM (inactive), the GI50 (KM12) was 6.78 µM (inactive) and the GI50 (UO-31) was 19.3 µM (inactive). The GI50 (NCI-H460) was 25.6 µM (inactive), the GI50 (OVCAR-8) was 24.7 µM (inactive) and the GI50 (SNB-75) was 15.4 µM (inactive). The GI50 (LOX IMVI) was 28.5 µM (inactive), the GI50 (ACHN) was 25.8 µM (inactive) and the GI50 (SK-MEL-28) was 17.1 µM (inactive). The GI50 (NCI-H23) was 55.3 µM (inactive), the GI50 (DU-145) was 48 µM (inactive) and the GI50 (PC-3) was 18.7 µM (inactive). The GI50 (Hs-578T) was 43.2 µM (inactive), the GI50 (HOP-62) was 30.8 µM (inactive) and the GI50 (SW-620) was 20.4 µM (inactive). For the same compound, the GI50 (SN12C) was 20.6 µM (inactive), the GI50 (Malme-3M) was 12.6 µM (inactive) and the GI50 (MOLT-4) was 38.6 µM (inactive). The GI50 (RPMI-8226) was 11.1 µM (inactive), the GI50 (786-0) was 27.4 µM (inactive) and the GI50 (CCRF-CEM) was 32.9 µM (inactive). The GI50 (SNB-19) was > 100 µM (inactive), the GI50 (HOP-92) was 15.1 µM (inactive) and the GI50 (HT-29) was 16.6 µM (inactive). The GI50 (MCF7) was 15.7 µM (inactive), the GI50 (CAKI-1) was 27.4 µM (inactive) and the GI50 (OVCAR-5) was 64 µM (inactive). The GI50 (M14) was 51.4 µM (inactive), the GI50 (SK-OV-3) was 31.1 µM (inactive) and the GI50 (T47D) was 21.1 µM (inactive). The GI50 (NCI-H522) was 19.1 µM (inactive), the GI50 (UACC-62) was 13.4 µM (inactive) and the GI50 (NCI/ADR-RES) was 33.2 µM (inactive). The GI50 (SK-MEL-5) was 18.2 µM (inactive), the GI50 (SF-295) was 22.4 µM (inactive) and the GI50 (UACC-257) was 26.8 µM (inactive). The GI50 (SF-268) was 30.1 µM (inactive), the GI50 (RXF 393) was 18 µM (inactive) and the GI50 (A549) was 49.8 µM (inactive).

For CN(C)c1ccc(/C=C/C=c2/c3ccccc3n3c2cc(-c2ccccc2)[n+]3C)cc1, the GI50 (HCT-15) was 0.488 µM, the GI50 (U-251) was 0.0387 µM (active) and the GI50 (K562) was 0.0512 µM (active). For the same compound, the GI50 (HL-60) was 0.075 µM (active), the GI50 (HCC 2998) was 0.303 µM (active) and the GI50 (NCI-H226) was 0.454 µM (active). The GI50 (MDA-MB-231) was 0.466 µM (active), the GI50 (TK-10) was 0.564 µM (active) and the GI50 (OVCAR-4) was 0.414 µM (active). The GI50 (A498) was 0.387 µM (active), the GI50 (EKVX) was 0.254 µM (active) and the GI50 (SF-539) was 0.171 µM (active). For the same compound, the GI50 (COLO 205) was 0.0698 µM (active), the GI50 (HCT-116) was 0.0386 µM (active) and the GI50 (OVCAR-3) was 0.0746 µM (active). The GI50 (MDA-N) was 0.234 µM (active), the GI50 (MDA-MB-435) was 0.151 µM (active) and the GI50 (KM12) was 0.0598 µM (active). For the same compound, the GI50 (UO-31) was 0.333 µM (active), the GI50 (NCI-H460) was 0.307 µM (active) and the GI50 (OVCAR-8) was 0.102 µM (active). For the same compound, the GI50 (SNB-75) was 0.336 µM (active), the GI50 (LOX IMVI) was 0.105 µM (active) and the GI50 (ACHN) was 0.218 µM (active). The GI50 (SK-MEL-28) was 0.459 µM (active), the GI50 (NCI-H23) was 0.188 µM (active) and the GI50 (DU-145) was 0.0931 µM (active). For the same compound, the GI50 (PC-3) was 0.133 µM (active), the GI50 (HOP-62) was 0.303 µM (active) and the GI50 (SW-620) was 0.0731 µM (active). The GI50 (SN12C) was 0.243 µM (active), the GI50 (Malme-3M) was 0.492 µM (active) and the GI50 (SK-MEL-2) was 4.54 µM (inactive). For the same compound, the GI50 (MOLT-4) was 0.0881 µM (active), the GI50 (RPMI-8226) was 0.149 µM (active) and the GI50 (786-0) was 0.252 µM (active). For the same compound, the GI50 (BT-549) was 0.233 µM (active), the GI50 (CCRF-CEM) was 0.187 µM (active) and the GI50 (SNB-19) was 0.127 µM (active). The GI50 (HOP-92) was 0.318 µM (active), the GI50 (HT-29) was 0.275 µM (active) and the GI50 (MCF7) was 0.0935 µM (active). For the same compound, the GI50 (CAKI-1) was 0.251 µM (active), the GI50 (OVCAR-5) was 0.478 µM (active) and the GI50 (M14) was 0.215 µM (active). The GI50 (SK-OV-3) was 0.348 µM (active), the GI50 (T47D) was 0.0735 µM (active) and the GI50 (NCI-H522) was 0.0548 µM (active). For the same compound, the GI50 (UACC-62) was 0.217 µM (active), the GI50 (NCI/ADR-RES) was 3.43 µM (inactive) and the GI50 (IGROV-1) was 0.238 µM (active). The GI50 (SK-MEL-5) was 0.169 µM (active), the GI50 (SF-295) was 0.288 µM (active) and the GI50 (UACC-257) was 0.182 µM (active). For the same compound, the GI50 (SF-268) was 0.497 µM (active), the GI50 (RXF 393) was 0.063 µM (active) and the GI50 (A549) was 0.26 µM (active).
